Literature values as cited in US20140271726A1, “COMPOSITIONS AND METHODS FOR […] SUSCEPTIBILITY TO ANTIVIRAL AGENTS” (WISCONSIN ALUMNI RESEARCH FOUNDATION, priority 2013, published 2014).

Tested on: HCV genotype 3
Conditions: genotype 3 patient, short duration monotherapy

## C/C=C/C[C@@H](C)[C@@H](O)[C@H]1C(=O)N[C@@H](CC)C(=O)N(C)[C@H](C)C(=O)N(CC)[C@@H](C(C)C)C(=O)N[C@@H](C(C)C)C(=O)N(C)[C@@H](CC(C)C)C(=O)N[C@@H](C)C(=O)N[C@H](C)C(=O)N(C)[C@@H](CC(C)C)C(=O)N(C)[C@@H](CC(C)C)C(=O)N(C)[C@@H](C(C)C)C(=O)N1C [alisprovir]
  clinical outcome: cured
